In patent US12687495B2, “Single cell selection and isolation” (ERASMUS UNIVERSITY MEDICAL CENTER ROTTERDAM, priority 2019, dated 2026):

Experiments:
MCF10A cells = assay: Uncaging efficiency of caged rhodamine with or without thioxanthone in cells; assay type: cell-based; conditions: for photoactivation / fluorescent response of irradiated cells: cells incubated with 15 uM, 405 nm exposure (1000 J/cm^2)
Protocol: FIGS. 11A and 11B illustrate images of cells incubated with a phototagging agent, with and without photosensitizer, respectively.
For example, uncaging efficiency is determined by a relative decrease in the energy or intensity of light needed to uncage the phototagging agent. For example, a wavelength at which the amount of energy or intensity is compared is more than four hundred nanometer, e.g. 405 nm as shown in the comparative example of FIGS. 11A and 11B.
The comparison is carried out by directly measuring uncaging efficiency in biological samples. The described experiment was conducted in mammalian cancer cell lines but can be generalized without loss of relevance to other mammalian cell types. The phototagging agent (caged rhodamine with thioxanthone) at 15 uM was incubated with MCF10A cells for 15 min. The caged moiety was then removed by irradiation with 405 nm CW light at 500-1500 J/cm^2. […] The uncaged rhodamine in the cells was imaged by 532 nm excitation (200 mW/0.35 cm^2).

cells = assay: Cell permeability assay: fluorescence and retention of activated dye in phototagged cells; assay type: cell-based; conditions: 15 uM for 15 min, PBS rinse, 405 nm light (1000 J/cm^2), 532 nm excitation; FIG. 10B; listed as phototagging agent
Excerpt: The unreacted agent was then rinsed away with PBS (phosphate buffered Saline). […] After activation, fluorescence of photoactivated uncaged rhodamine was observed and imaged by 532 nm excitation (200 mW/0.35 cm^2).

[1] = UV-Vis absorption spectrum; assay type: physicochemical
Excerpt: Without wishing to be bound by theory, the chemical compound and the uncaging schematically proceeds as illustrated in FIG. 12. In a preferred embodiment, the photosensitizer moiety absorbs light of a wavelength from 360 nm-420 nm while the caged fluorophore moiety is essentially insensitive to light of a wavelength >400 nm. This typically means that the absorption coefficient of the photosensitizer as a wavelength of higher than 400 nm is more than 10 times, preferably more than 40 times as high as the absorption coefficient of the caged fluorophore moiety at the same wavelength.

In the case of COc1cc(COC(=O)N2CCCc3cc4c(cc32)Oc2cc3c(cc2C42OC(=O)c4cc(C(=O)Nc5ccc6sc7ccccc7c(=O)c6c5)ccc42)CCCN3C(=O)OCc2cc(OC)c(OC)cc2[N+](=O)[O-])c([N+](=O)[O-])cc1OC [chemical compound A], the “light energy at which the caged moiety was removed (uncaging)” value (MCF10A cells; 405 nm CW light, 15 uM agent incubated with MCF10A cells for 15 min, uncaged rhodamine imaged by 532 nm excitation) is reported as 500-1500 J/cm^2, the “uncaging efficiency compared to corresponding caged rhodamine without photosensitizer thioxanthone” value (MCF10A cells; FIG. 10A, 405 nm) is reported as “more than ten” and the “photoactivation / fluorescent response of irradiated cells” value (MCF10A cells; listed as caged rhodamine conjugated with thioxanthone) is reported as “a fluorescent response F could be measured”. For the same compound, the “photoactivation / fluorescent response of irradiated cells” value (MCF10A cells; listed as phototagging agent) was “photoactivated”, the “time the uncaged phototagging agent stays inside cells (photoactivated fluorescence observed)” value (cells) was “seven” and the “absorption >400 nm” value [1] was “has absorption >400 nm”.
